# Reference: patent publication EP0080819A1, “11-0-Alkylerythromycin A derivatives” (TAISHO PHARMACEUTICAL CO. LTD, priority 1981, dated 1983)
# Test system: Staphylococcus aureus Smith No. 4
# Assay: In vivo antibacterial activity (mouse protection test, number of surviving mice)
# Conditions: oral, one hour after inoculation, male ddY mice, groups of 20, 10^7 cells per mouse, i.p., living mice for seven days after administration
# Protocol: Male ddY mice weighing 20 - 23 g in groups 20 each were inoculated with Staphylococcus aureus Smith No. 4 (10^7 cells per mouse, i.p.). Erythromycin A was used as a control, the compound of formula I wherein R is methyl group("compound 1") was administered orally at one hour after inoculation, and the number of living mice for seven days after administration was calculated to determine the in vivo antibacterial activity.
Structure (SMILES),In vivo Antibacterial Activity [The Number of Surviving Mice] (dose 0.5 mg/mouse),In vivo Antibacterial Activity [The Number of Surviving Mice] (dose 1 mg/mouse),In vivo Antibacterial Activity [The Number of Surviving Mice] (dose 2 mg/mouse),In vivo Antibacterial Activity [The Number of Surviving Mice] (dose 4 mg/mouse)
"CC[C@H]1OC(=O)[C@H](C)[C@@H](O[C@H]2C[C@@](C)(OC)[C@@H](O)[C@H](C)O2)[C@H](C)[C@@H](O[C@@H]2O[C@H](C)C[C@H](N(C)C)[C@H]2O)[C@](C)(O)C[C@@H](C)C(=O)[C@H](C)[C@@H](OC)[C@]1(C)O [Compound 1, 11-0-methylerythromycin A]",6,12,20,20
CC[C@H]1OC(=O)[C@H](C)[C@@H](O[C@H]2C[C@@](C)(OC)[C@@H](O)[C@H](C)O2)[C@H](C)[C@@H](O[C@@H]2O[C@H](C)C[C@H](N(C)C)[C@H]2O)[C@](C)(O)C[C@@H](C)C(=O)[C@H](C)[C@@H](O)[C@]1(C)O [Erythromycin A],4,8,18,20
